One may read the EC50 as the concentration needed to bring the measured effect to its halfway point.

Molecules are shown by their SMILES. Structures can show the parent of a compound that is named as a salt.

Type in all cases: cell-based
Test [1] deals with T1, human EDG8 (S1PR5) receptor (Homo sapiens, UniProt Q9H228).
T1 construct: carries the transgenes human EDG8 (S1PR5) receptor (Acession number NP_110387.1); expressed in transfected cells; host or cells: CHO-A21-EDG8#12 (CHO clone co-expressing mitochondrial aequorin and chimaeric Gaqi5)
T1 sequence (Q9H228 whole entry): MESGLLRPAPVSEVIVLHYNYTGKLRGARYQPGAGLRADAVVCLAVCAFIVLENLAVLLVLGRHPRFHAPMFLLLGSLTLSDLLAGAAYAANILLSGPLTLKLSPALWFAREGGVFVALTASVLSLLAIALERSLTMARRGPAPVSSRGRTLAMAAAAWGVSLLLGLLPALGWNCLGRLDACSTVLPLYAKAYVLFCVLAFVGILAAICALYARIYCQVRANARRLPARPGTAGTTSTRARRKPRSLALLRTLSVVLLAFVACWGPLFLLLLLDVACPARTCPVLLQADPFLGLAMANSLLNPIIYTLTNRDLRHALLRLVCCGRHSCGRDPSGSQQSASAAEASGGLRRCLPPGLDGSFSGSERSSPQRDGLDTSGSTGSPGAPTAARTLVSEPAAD
In words: Aequorin assay, agonist potency, CHO-A21-EDG8#12 cells. Particulars: agonist mode, aequorin luminescence; read-out: S1P5 EC50 range #. In a few lines: (§1)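 CHO cells coexpressing receptor, mitochondrial aequorin and Gαqi5 (S1P3 pool: GNA16) were loaded overnight at RT with 5 μM coelenterazine h in 0.1% fatty-acid-free BSA buffer. Cells were injected onto compound, luminescence recorded 90 s and integrated, normalised to digitonin or 20 μM ATP; sigmoidal fit.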

Test [2] addresses T2, human EDG1 (S1PR1) receptor (Homo sapiens, UniProt P21453).
T2 construct: expressed in transfected cells; host or cells: CHO-A21-Edg1#17 (CHO clone co-expressing mitochondrial aequorin and chimaeric Gaqi5)
In words: Aequorin assay, agonist potency, CHO-A21-Edg1#17 cells. Particulars: agonist mode, aequorin luminescence; read-out: S1P1 EC50. In a few lines:
as §1

The target of test [3] is T3, human EDG3 (S1PR3) receptor (Homo sapiens, UniProt Q99500).
T3 construct: expressed in transfected cells; host or cells: CHO-A2-S1P3 Mix (CHO cell pool co-expressing mitochondrial aequorin and GNA16)
T3 sequence (Q99500 whole entry): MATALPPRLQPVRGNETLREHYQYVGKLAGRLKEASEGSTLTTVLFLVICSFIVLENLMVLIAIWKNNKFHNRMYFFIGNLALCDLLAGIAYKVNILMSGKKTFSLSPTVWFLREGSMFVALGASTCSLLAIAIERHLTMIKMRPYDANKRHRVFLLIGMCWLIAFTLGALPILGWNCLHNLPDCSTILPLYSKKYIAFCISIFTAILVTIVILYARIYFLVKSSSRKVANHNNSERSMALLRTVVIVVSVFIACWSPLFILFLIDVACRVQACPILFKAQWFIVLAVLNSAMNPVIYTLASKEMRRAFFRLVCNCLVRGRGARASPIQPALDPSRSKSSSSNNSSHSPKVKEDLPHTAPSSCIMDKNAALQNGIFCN
In words: Aequorin assay, agonist potency, CHO-A2-S1P3 Mix cells. Particulars: agonist mode, aequorin luminescence. The protocol: Agonistic activity was measured as described below.
Cell clone CHO-A21-Edg1#17 carries the transgenes human EDG1 (S1PR1) receptor (Accession number NP_001391.2), mitochondrially targeted Aequorin (active part corresponds to accession number 1SL8_A) and chimaeric Gaqi5=Gaq modified with the 5 C-terminal amino-acids replaced with those of the Gai protein (DCGLF). CHO-A2-S1P3 Mix is a cell pool ectopically expressing human EDG3 (S1PR3) receptor (Accession number NP_005217.2) mitochondrially targeted Aequorin (active part has a sequence similar to accession number AY601106.1) and GNA16 (Accession number NP_002059.3). Cell clone CHO-A21-EDG8#12 carries the transgenes human EDG8 (S1PR5) receptor (Acession number NP_110387.1), mitochondrially expressed Aequorin (active part corresponds to accession number 1SL8_A) and chimaeric Gaqi5 (Gaq modified to present the 5 last amino-acids of the Gai protein “DCGLF”; see above). Cells are grown to mid-log phase in culture medium (HAM's F12, 10% FBS, 100 IU/mL penicillin, 100 μg/mL streptomycin, 250 μg/mL Zeocin, 400 μg/mL G418). 18 hours prior to frozen cells preparation, the medium is changed to remove the antibiotics.
18 hours prior to the test, vials of frozen cells are quickly thawed in a 37° C. water bath, cells are recovered by centrifugation and resuspended in assay buffer (DMEM/HAM's F12 with HEPES, without phenol red+0.1% fatty acid-free BSA). Cells are gently agitated in suspension overnight at RT in presence of 5 μM of Coelenterazine h (Molecular Probes). On the day of the test, cells are diluted to their final working concentrations in assay buffer and agitated in suspension for 1 h at RT. Cells are then placed in the luminescence reader (Hamamatsu Functional Drug Screening System 6000, FDSS6000). During cells incubation, compounds are prepared in 100% DMSO, and subsequently diluted in assay buffer. Compounds are then dispensed in the assay plate (black, clear-bottom, 384-well plate). After binding of agonists to the human S1P receptor the intracellular calcium concentration increases and binding of calcium to the Aequorin/Coelenterazine complex leads to an oxidation reaction of coelenterazine, which results in the production of Aequorin, coelenteramide, CO2 and light (Dmax 469 nm). The luminescent response is dependent on the agonist concentration. For agonist testing, 30 μL of cell suspension are injected on 30 μL of test compound or reference agonist in the assay plate. The resulting emission of light is recorded for 90 seconds using the FDSS6000. Dose response curves with the reference compounds are performed before testing the compounds. S1P is the reference agonist and JTE-013 the reference antagonist for S1P2.
Luminescence data are integrated over the reading interval for agonist and antagonist modes. To standardize the emission of recorded light (determination of the “100% signal”) across plates and across different experiments, some of the wells contain 100 μM digitonin or a saturating concentration of ATP (20 μM). Plates also contain the reference agonist at a concentration equivalent to the EC80 obtained during the test validation and the EC100. Dose-response data from test compounds were analyzed with XLfit (IDBS) software using nonlinear regression applied to a sigmoidal dose-response model and the following equation: […]

The next test addresses T4, S1P4 (Homo sapiens, UniProt O95977).
T4 sequence (O95977 1-384): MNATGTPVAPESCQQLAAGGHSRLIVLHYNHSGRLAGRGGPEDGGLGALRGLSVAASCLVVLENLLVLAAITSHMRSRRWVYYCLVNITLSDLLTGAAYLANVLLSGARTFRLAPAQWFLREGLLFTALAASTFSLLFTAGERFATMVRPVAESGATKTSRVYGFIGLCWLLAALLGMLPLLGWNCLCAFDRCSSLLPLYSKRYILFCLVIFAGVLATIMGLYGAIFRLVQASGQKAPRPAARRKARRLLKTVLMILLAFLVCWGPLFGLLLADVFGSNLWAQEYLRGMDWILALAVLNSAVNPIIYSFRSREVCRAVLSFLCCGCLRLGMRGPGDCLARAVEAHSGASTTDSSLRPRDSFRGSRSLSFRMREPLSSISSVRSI
In words: Aequorin assay, agonist potency, S1P4. Particulars: agonist mode, aequorin luminescence. The method in brief: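 Aequorin luminescence read over 90 s after adding coelenterazine h–loaded cells (5 μM, overnight, RT) to test compound in phenol red-free DMEM/F12 buffer containing 0.1% fatty acid-free BSA. Responses integrated, scaled to the 100% signal from 100 μM digitonin or 20 μM ATP, and fitted to a sigmoidal dose-response model.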

T2 sequence (P21453 whole entry): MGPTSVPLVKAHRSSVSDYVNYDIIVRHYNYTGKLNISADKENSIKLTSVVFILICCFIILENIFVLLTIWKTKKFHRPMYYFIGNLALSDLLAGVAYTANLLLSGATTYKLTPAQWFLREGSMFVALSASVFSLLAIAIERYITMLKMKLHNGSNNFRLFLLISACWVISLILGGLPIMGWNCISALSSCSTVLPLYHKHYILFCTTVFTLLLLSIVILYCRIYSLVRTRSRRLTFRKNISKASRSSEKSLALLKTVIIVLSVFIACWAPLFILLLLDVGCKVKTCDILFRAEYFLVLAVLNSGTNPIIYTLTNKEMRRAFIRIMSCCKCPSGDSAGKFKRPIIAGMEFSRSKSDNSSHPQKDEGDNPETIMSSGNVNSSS

With `O=C(O)CN1CC2(Cc3ccc(OCc4ccc(Cl)cc4)cc3C2)C1` [Example 11, 2-(5′-((4-chlorobenzyl)oxy)-1′,3′-dihydrospiro[azetidine-3,2′-inden]-1-yl)acetic acid], the EC50 in test [1] is 1000 to 10000 nM; in test [2], over 1000 nM; in test [3] it was over 1000 nM; at S1P4, under 1000 nM.
Take `O=C(O)CCN1CC2(Cc3ccc(OCc4ccccc4)cc3C2)C1` [Example 6, 3-(5′-(benzyloxy)-1′,3′-dihydrospiro[azetidine-3,2′-inden]-1-yl)propanoic acid hydrochloride]: the concentration for a half-maximal effect (EC50) in test [1] was 1000 to 10000 nM; in test [2] it was over 1000 nM; in test [3] it was over 1000 nM; at S1P4, under 1000 nM.
Turning to `O=C(O)CN1CC2(Cc3ccc(OCCc4c(Cl)cccc4Cl)cc3C2)C1` [Example 63, 2-(5′-(2,6-dichlorophenethoxy)-1′,3′-dihydrospiro[azetidine-3,2′-inden]-1-yl)acetic acid], the EC50 in test [1] was at most 10 nM; in test [2] it was over 1000 nM; in test [3] it was over 1000 nM; at S1P4 it was under 1000 nM.
Turning to `O=C(O)CN1CC2(Cc3ccc(OCCc4ccccc4C(F)(F)F)cc3C2)C1` [Example 62], the EC50 was at most 10 nM in test [1], over 1000 nM in test [2], over 1000 nM in test [3] and under 1000 nM at S1P4.
Consider `O=C(O)CN1CC2(Cc3ccc(OCc4ccccc4C4CC4)cc3C2)C1` [Example 111, 2-(5′-((2-cyclopropylbenzyl)oxy)-1′,3′-dihydrospiro[azetidine-3,2′-inden]-1-yl)acetic acid], for which the EC50 was at most 10 nM in test [1], over 1000 nM in test [2], over 1000 nM in test [3] and under 1000 nM on S1P4.
On to `O=C(O)C1(CN2CC3(Cc4ccc(OCc5cccc(Cl)c5)cc4C3)C2)CC1` [Example 45, 1-((5′-((3-chlorobenzyl)oxy)-1′,3′-dihydrospiro[azetidine-3,2′-inden]-1-yl)methyl)cyclopropanecarboxylic acid], for which the concentration giving a half-maximal response (EC50) in test [1] was 10 to 100 nM; in test [2], over 1000 nM; in test [3] it was over 1000 nM; on S1P4, under 1000 nM.
On to `O=C(O)C1(CN2CC3(Cc4ccc(OCc5c(Cl)cccc5Cl)cc4C3)C2)CC1` [Example 46, 1-((5′-((2,6-dichlorobenzyl)oxy)-1′,3′-dihydrospiro[azetidine-3,2′-inden]-1-yl)methyl)cyclopropanecarboxylic acid], for which the EC50 in test [1] was at most 10 nM; in test [2], over 1000 nM; in test [3] it was over 1000 nM; on S1P4, under 1000 nM.
For `O=C(O)CN1CC2(Cc3ccc(OCc4c(F)cccc4C4CC4)cc3C2)C1` [Example 110, 2-(5′-((2-cyclopropyl-6-fluorobenzyl)oxy)-1′,3′-dihydrospiro[azetidine-3,2′-inden]-1-yl)acetic acid], the EC50 in test [1] is at most 10 nM; in test [2], over 1000 nM; in test [3], over 1000 nM; at S1P4, under 1000 nM.
In the case of `O=C(O)CN1CCC2(CC1)Cc1ccc(OCc3c(Cl)cccc3Cl)cc1C2` [Example 160, 2-(5-((2,6-dichlorobenzyl)oxy)-1,3-dihydrospiro[indene-2,4′-piperidin]-1′-yl)acetic acid], the EC50 in test [1] was at most 10 nM; in test [2] it was over 1000 nM; in test [3], over 1000 nM; at S1P4, under 1000 nM.
As for `O=C(O)CN1CC2(Cc3ccc(OCc4cccc(Cl)c4)cc3C2)C1` [Example 16, 2-(5′-((3-chlorobenzyl)oxy)-1′,3′-dihydrospiro[azetidine-3,2′-inden]-1-yl)acetic acid compound with acetic acid (1:1)], the EC50 is at most 10 nM in test [1], over 1000 nM in test [2], over 1000 nM in test [3] and under 1000 nM at S1P4.
Take `CCc1cccc(Cl)c1COc1ccc2c(c1)CC1(C2)CN(CC(=O)O)C1` [Example 24, 2,2,2-trifluoroacetic acid compound with 2-(5′-((2-chloro-6-ethylbenzyl)oxy)-1′,3′-dihydrospiro[azetidine-3,2′-inden]-1-yl)acetic acid (1:1)]: the EC50 in test [1] is at most 10 nM; in test [2], over 1000 nM; in test [3], over 1000 nM; at S1P4, under 1000 nM.
With `CCc1cccc(Cl)c1COc1ccc2c(c1)CC1(C2)CN(CC2(C(=O)O)CC2)C1` [Example 28, 1-((5′-((2-chloro-6-ethylbenzyl)oxy)-1′,3′-dihydrospiro[azetidine-3,2′-inden]-1-yl)methyl)cyclopropanecarboxylic acid], the EC50 in test [1] is at most 10 nM; in test [2] it was over 1000 nM; in test [3] it was over 1000 nM; at S1P4 it was under 1000 nM.
For the compound `O=C(O)C1(CN2CC3(Cc4ccc(-c5ccc(OCc6cccc(F)c6)cc5)cc4C3)C2)CC1` [Example 50, 1-((5′-(4-((3-fluorobenzyl)oxy)phenyl)-1′,3′-dihydrospiro[azetidine-3,2′-inden]-1-yl)methyl)cyclopropanecarboxylic acid], the EC50 is at most 10 nM in test [1], over 1000 nM in test [2], over 1000 nM in test [3] and under 1000 nM at S1P4.
As to `O=C(O)CN1CC2(Cc3ccc(OCc4ccccc4)cc3C2)C1` [Example 8, 2-(5′-(benzyloxy)-1′,3′-dihydrospiro[azetidine-3,2′-inden]-1-yl)acetic acid], the 50% effective concentration (EC50) in test [1] was 100 to 1000 nM; in test [2] it was over 1000 nM; in test [3], over 1000 nM; at S1P4, under 1000 nM.
Turning to `O=C(O)CN1CC2(Cc3ccc(OCc4cc(F)cc(F)c4)cc3C2)C1` [Example 14, 2-(5′-((3,5-difluorobenzyl)oxy)-1′,3′-dihydrospiro[azetidine-3,2′-inden]-1-yl)acetic acid], the EC50 in test [1] was 10 to 100 nM; in test [2] it was over 1000 nM; in test [3], over 1000 nM; at S1P4, under 1000 nM.

The values are drawn from patent publication US20200055817A1 (AbbVie Deutschland GmbH & Co. KG, priority 2016, published 2020).
